Earlier results on 1 compound are cited in patent US6366801B1, “Pharmaceutically enhanced low-energy radiosurgery” (Sirius Medicine, LLC, priority 1997, dated 2002).

One series concerns cells in vitro. Particulars: iodine concentration of 50 mg/ml, cells in vitro (Dawson et al.).
The next series relates to brain tumors. Particulars: low-energy x-rays and iodine, brain tumors in rabbits (Iwamoto et al.).
The subject of another series is lymphocytes. Particulars: iodine with low-energy photons, lymphocytes (Santos Mello et al.).

Take `II` [iodine]: the “effect on radiation damage to cells” value in the series with cells in vitro is “radiation enhancement of cell damage”. Besides, the dose enhancement entry in the series with brain tumors is reported as “about 30%”; with lymphocytes, “up to 3”.
